The data set in a line: Agilent ZORBAX 300 SB-C18, 150 × 1 mm, 3.5 µm; A: water + 0.01% heptafluorobutyric acid; B: acetonitrile + 0.01% heptafluorobutyric acid; gradient (min/%B) 0/0 100/90. The following applies: stereoisomer not certain.
On to `O=c1cccc[nH]1`, for which the LC retention time was 4.79 min.
With `CCCC(C)N` (configuration not stated) the figure was 7.09 min; with `CCNCc1ccccc1`, 7.68 min.
For `CC(=O)c1ccc(-n2cccc2)cc1` the value was 13.2 min; for `CN(C)c1nc(N(C)C)nc(N(C)C)n1`, 9.15 min; for `CCc1ccc(C2Nc3ccccc3C(=O)N2c2ccc(N(C)C)cc2)cc1` (configuration not stated), 13.7 min.
With `CN1CC=C(C=Cc2ccco2)CC1` the figure was 8.8 min.
For `O=C(O)CCN1CCCc2ccccc21`, the LC retention time was found to be 11.3 min.
With `O=C(NN=Cc1ccco1)c1ccccc1` the figure was 9.65 min; with `c1ccc2c(c1)[nH]c1ccccc12`, 14.6 min; with `CCN(CC)c1cc(C)c2ccccc2n1`, 9.54 min.
Turning to `CCCCc1c(O)n(-c2ccc(O)cc2)n(-c2ccccc2)c1=O`, the LC retention time is 12.8 min.
For `Cc1ccc(C(=O)c2ccc(C)c(N)c2)cc1N` the value was 10.3 min.
With `c1csc(CN2CCNCC2)c1` the figure was 7.6 min; with `c1ccc(-n2c3c(c4ccccc42)CCCC3)cc1`, 21.2 min.
With `Nc1cccc2c1CCC2` the figure was 8.43 min; with `COC(=O)Nc1nc2ccc(Sc3ccccc3)cc2[nH]1`, 12.2 min.
`NC(=S)NCCc1ccccc1`: the LC retention time worked out at 9.59 min.
For `Cc1cc(=O)[nH]c(C(C)C)n1` the value was 6.9 min; for `NCCN1CCCCC1`, 6.98 min; for `CC(c1ccccc1)N1CNc2c(c(=O)[nH]c(=O)n2Cc2ccccc2)C1` (configuration not stated), 9.33 min.
Consider `O=C1CCCN1CCc1ccccn1`, for which the LC retention time is 6.77 min.
With `Cn1c(C(=O)N2CCN(C(c3ccccc3)c3ccccc3)CC2)cc(=O)n(C)c1=O` the figure was 11.7 min.
For `CCCCCNC=O` the value was 8.68 min.
For `CN1CCCC1` the value was 5.54 min; for `c1ccc(-n2c3c(c4ccccc42)CCC3)cc1`, 20.1 min.
As for `S=C(Nc1cccnc1)N(CCc1ccccc1)Cc1ccccc1`, the LC retention time turned out to be 12.8 min.
With `Cc1n[nH]c(=O)nc1N=NCc1c[nH]c2ccccc12`, the LC retention time came out at 10 min.
`CCOC(=O)CC1CN(C)CCN1C` (configuration not stated): the LC retention time turned out to be 7.31 min.
For `c1ccc(-n2nnnc2-n2ccnc2)cc1` the value was 9.59 min; for `CC(=NNC(=O)CNC(=O)c1ccco1)c1ccc(C(C)(C)C)cc1`, 13.9 min; for `CC1=CC(=O)C2CC1C2(C)C` (configuration not stated), 11.4 min.
As to `CC1CCCCN1C(=S)NCc1ccccc1` (configuration not stated), the LC retention time came out at 14.3 min.
With `NC1CC(CO)C(O)C1O` (configuration not stated) the figure was 2.49 min.
With `COc1ccc(CNCc2ccc(C(C)C)cc2)cc1` the figure was 11.5 min.
As for `c1cncc(N2CCN(c3cccnc3)CC2)c1`, the LC retention time was 7.33 min.
With `CCCCCCCCCn1cc[n+](CCCCCCCCC)c1C` the figure was 17.8 min.
For `c1cc(C2=NC(c3ccncc3)C(c3ccncc3)N2)ccn1` (configuration not stated) the value was 7.12 min; for `CCCN`, 4.83 min; for `Nc1ccccn1`, 6.12 min.
For `c1ccc(Cc2nc3ccccc3[nH]2)cc1` the value was 9.23 min.
In the case of `COc1cc(NC(C)=O)cc(OC)c1OC`, the LC retention time is 8.42 min.
With `C[n+]1cccc(C(=O)O)c1` the figure was 1.49 min.
Take `CC(NC(=O)c1cccnc1)C(=O)N1CCCCC1` (configuration not stated): the LC retention time turned out to be 8.28 min.
With `CC1CCc2[nH]c3ccccc3c2C1` (configuration not stated) the figure was 16.9 min.
For `CCOC(=O)c1[nH]c(C)c(C(=O)OCc2ccccc2)c1C` the value was 15.8 min.
For `COc1ccc2ccccc2c1C=NNC(=O)C(c1ccccc1)c1ccccc1` the value was 17.5 min; for `CCC(C)NC(C)CC` (configuration not stated), 8.16 min; for `CC(N)CCCC(C)(C)O` (configuration not stated), 7.64 min.
As to `Cc1ccc(CN)cc1`, the LC retention time came to 7.92 min.
With `O=C(CCc1ccccc1)NN=Cc1ccccc1O` the figure was 13.3 min; with `COC(=O)c1ccc(NC(=O)Cn2nc(C)c3ccccc3c2=O)cc1`, 11.9 min.
With `S=c1[nH]c(-c2ccccc2)c(-c2ccccc2)n1-c1ccccc1`, the LC retention time came to 14.4 min.
As for `CCn1cc(-c2ccn[nH]2)c(C)n1`, the LC retention time was found to be 8.21 min.
With `NC1CCCCCC1` the figure was 7.85 min; with `Nc1cccc2cc[nH]c12`, 8.08 min.
For `COc1cc(CNC(=O)Nc2ccccc2)cc(OC)c1OC` the value was 11.3 min; for `Cc1ccccc1-n1c(O)c(C=C2C=Nc3ccccc32)c(=O)n(-c2ccccc2C)c1=O`, 15.9 min; for `CCn1c2ccccc2c2cc(C(=O)O)ccc21`, 13.5 min.
With `Nc1ccncc1` the figure was 5.68 min; with `COC(=O)CCCCCN`, 7.25 min; with `CC(=O)Nc1c2ccccc2nc2ccccc12`, 7.89 min.
Take `Cc1ccc(CN2CCN(N=Cc3ccco3)CC2)cc1`: the LC retention time was 9.55 min.
With `c1cncc(CNCc2cccnc2)c1` the figure was 7.11 min; with `CCOC(=O)C1=CN(c2cc(C)ccc2C)C=C(C(=O)OCC)C1c1cccc(C)c1`, 21.5 min; with `CC(=O)Nc1ccc(C(=O)NCc2ccco2)cc1`, 8.96 min.
With `CCc1ccc(N2CC(C(=O)Nc3ccc(N(C)C)cc3)CC2=O)cc1` (configuration not stated) the figure was 10.4 min; with `CC1CCCCN1C(=O)c1ccccc1NC(=O)c1ccco1` (configuration not stated), 12.4 min.
With `Cc1oc(C)c(C(N)=O)c1C(N)=O` the figure was 6.82 min; with `CCCc1cc(C(=O)O)ccn1`, 6.01 min; with `Cc1cc2n[nH]nc2cc1C`, 9.69 min.
`NC(=O)CCCCCCCCCC(Cc1ccccc1)C(=O)O` (configuration not stated): the LC retention time amounted to 13.3 min.
For `c1ccc2[nH]c(CCn3c4c(c5ccccc53)CCCC4)nc2c1` the value was 12 min; for `O=C(O)CCCNC(=O)CCCCCCCC(=O)NCCCC(=O)O`, 7.58 min.
With `C#Cc1cncn1C` the figure was 6.39 min.
For `Cc1[nH]c(-c2ccccc2)c(-c2ccccc2)c1C(=O)OCc1ccccc1` the value was 18.2 min; for `Cc1ccc2c(c1)C1CN(C)CCC1N2C(=S)NC1CCCCC1` (configuration not stated), 12.2 min; for `Nc1ccc(-c2cccs2)cc1`, 10.5 min.
With `O=C1c2ccccc2C(=O)N1CCN1CCNCC1`, the LC retention time is 8.07 min.
For `Nc1ccccc1C(=O)NN=Cc1cccc2ccccc12` the value was 13.3 min; for `CNC(=S)Nc1ccc2c(c1)CCCC2`, 12.5 min.
In the case of `C[N+]12CCC(CC1)C1CC(O)CCC12` (configuration not stated), the LC retention time is 6.39 min.
With `c1cc(CCCc2ccncc2)ccn1` the figure was 7.37 min.
With `Cc1[nH]c(C=O)c(C)c1C` the figure was 10.3 min; with `COC(=O)c1ccccc1-c1cc(C(=O)OC)c2ccccc2n1`, 15 min; with `c1ccc(CN2CCN(Cc3ccccc3)C2c2cccs2)cc1`, 11 min.
With `S=C(NCc1ccccc1)Nc1cccc2ccccc12` the figure was 14.4 min; with `CC(C)Cn1c(Cc2ccccc2)nc2ccccc21`, 11.4 min.
As to `CCCCCCCCCCCC(N)=O`, the LC retention time is 16.7 min.
With `Cc1cc(C)[nH]n1`, the LC retention time was found to be 6.99 min.
With `Cc1[nH]c2ccc(C(=O)O)cc2c1CC(=O)O` the figure was 8.13 min.
For `CC(=O)C=CC=C(C)CCC=C(C)C`, the LC retention time was 17.1 min.
For `CNC(C)(C)Cc1ccccc1` the value was 8.99 min; for `O=C(O)CNC(=O)C1CCCCC1`, 8.07 min; for `Cc1ccc2[nH]cc(C=O)c2c1`, 9.98 min.
On to `O=C(NC(Cc1ccccc1)C(=O)NCc1ccco1)c1ccccc1` (configuration not stated), for which the LC retention time came out at 12.8 min.
Consider `Nc1ccc2c(c1)COc1ccccc1O2`, for which the LC retention time is 10.5 min.
On to `c1ccc(CCn2c(-c3ccccc3)csc2=Nc2ccccc2)cc1`, for which the LC retention time came to 13.8 min.
For the compound `Cc1ccc(Nc2ccccc2)cc1`, the LC retention time stood at 16.5 min.
With `COc1cc2ccccc2cc1CNc1ccccc1` the figure was 15.7 min; with `Cn1cccc1CC(=O)NN=CC=Cc1ccccc1`, 12.7 min; with `COc1ccc(-c2cc(=O)c3cc(C)cc(C)c3o2)cc1OC`, 15.2 min.
For `CC(C)c1ccccc1NC(=S)NCCN1CCN(C(=S)Nc2ccccc2C(C)C)CC1` the value was 12.5 min; for `Cc1ccc2c(CN3CCNCC3)cc(=O)oc2c1`, 8.81 min; for `Nc1ccccc1N`, 6.66 min.
As for `Cc1ccccc1CN1CCN(Cc2c[nH]c3ccccc23)CC1`, the LC retention time was found to be 10.8 min.
As to `COc1ccc(NC(=O)c2ccc3c(c2)NC(=O)CO3)cc1OC`, the LC retention time is 9.62 min.
With `CC(C)CC(=O)Nc1cccc(C(=O)O)c1` the figure was 10.1 min; with `CCCNC(=O)Nc1ccc(C(=O)OC)cc1`, 10.8 min.
With `CNC(=O)c1ccc(N)cc1` the figure was 6.25 min; with `C#CC(C)(CC)NC(=O)CCc1ccccc1` (configuration not stated), 13 min.
As for `CCN(CC)CC`, the LC retention time came out at 7.12 min.

The values are drawn from the RepoRT retention time repository.
